Values after ≈ are worked out from the molar mass of the structure shown.
How the values were obtained:
Type in all cases: cell-based
S. aureus MP-12 = assay: Broth dilution MIC determination (CLSI), S. aureus MP-12; conditions: Staphylococcus aureus, MP12; strain MP-12, broth dilution
E. coli MP-4 = assay: Broth dilution MIC determination (CLSI), E. coli MP-4; conditions: Escherichia coli, MP4; strain MP-4, broth dilution; read-out: MIC E. coli MP-4
K. pneumoniae MP-546 = assay: Broth dilution MIC determination (CLSI), K. pneumoniae MP-546; conditions: Klebsiella pneumoniae, MP546; strain MP-546, broth dilution
P. aeruginosa MP-3 = assay: Broth dilution MIC determination (CLSI), P. aeruginosa MP-3; conditions: Pseudomonas aeruginosa, MP3; strain MP-3, broth dilution
A. baumannii MP-15 = assay: Broth dilution MIC determination (CLSI), A. baumannii MP-15; conditions: Acinetobacter baumannii, MP15; strain MP-15, broth dilution; read-out: MIC A. baumanii MP-15

Structure (SMILES)	MIC (S. aureus MP-12) [µg/mL]	MIC (E. coli MP-4) [µg/mL]	MIC (K. pneumoniae MP-546) [µg/mL]	MIC (P. aeruginosa MP-3) [µg/mL]	MIC (A. baumannii MP-15) [µg/mL]
CO[C@]1(C)C[C@@H](C)CN(CC(C)C)[C@H](C2CN(CC(C)C)C2)COC(=O)C(C)(C)C(=O)[C@H](C)[C@H]1O[C@@H]1O[C@H](C)C[C@H](N(C)C)[C@H]1O [Compound 21, (3R,6R,8R,9R,10R)-9-(((2S,3R,4S,6R)-4-(dimethylamino)-3-hydroxy-6-methyltetrahydro-2H-pyran-2-yl)oxy)-4-isobutyl-3-(1-isobutylazetidin-3-yl)-8-methoxy-6,8,10,12,12-pentamethyl-1-oxa-4-azacyclotridecane-11,13-dione]	> 32	> 32	> 32	> 32	> 32
CO[C@]1(C)C[C@@H](C)CN(C)[C@@H]([C@@H]2CCCN(C)C2)COC(=O)C(C)(C)C(=O)[C@H](C)[C@H]1O[C@@H]1O[C@H](C)C[C@H](N(C)C)[C@H]1O [Compound 23, (3S,6R,8R,9R,10R)-9-(((2S,3R,4S,6R)-4-(dimethylamino)-3-hydroxy-6-methyltetrahydro-2H-pyran-2-yl)oxy)-8-methoxy-4,6,8,10,12,12-hexamethyl-3-((R)-1-methylpiperidin-3-yl)-1-oxa-4-azacyclotridecane-11,13-dione]	> 32	4 to 32 (≈ 6.69 to 53.5 µM)	4 to 32 (≈ 6.69 to 53.5 µM)	> 32	> 32
CN[C@H]1CC[C@H]([C@H]2COC(=O)C(C)(C)C(=O)[C@H](C)[C@@H](O[C@@H]3O[C@H](C)C[C@H](N(C)C)[C@H]3O)[C@](C)(OC)C[C@@H](C)CN2C)CC1 [Compound 26, (3S,6R,8R,9R,10R)-9-(((2S,3R,4S,6R)-4-(dimethylamino)-3-hydroxy-6-methyltetrahydro-2H-pyran-2-yl)oxy)-8-methoxy-4,6,8,10,12,12-hexamethyl-3-((1r,4S)-4-(methylamino)cyclohexyl)-1-oxa-4-azacyclotridecane-11,13-dione]	> 32	4 to 32 (≈ 6.54 to 52.3 µM)	> 32	> 32	> 32
CO[C@]1(C)C[C@@H](C)CN(CC(C)C)[C@H](C2CN(C(=O)CN(C)C)C2)COC(=O)C(C)(C)C(=O)[C@H](C)[C@H]1O[C@@H]1O[C@H](C)C[C@H](N(C)C)[C@H]1O [Compound 27, (3R,6R,8R,9R,10R)-9-(((2S,3R,4S,6R)-4-(dimethylamino)-3-hydroxy-6-methyltetrahydro-2H-pyran-2-yl)oxy)-3-(1-(dimethylglycyl)azetidin-3-yl)-4-isobutyl-8-methoxy-6,8,10,12,12-pentamethyl-1-oxa-4-azacyclotridecane-11,13-dione]	> 32	> 32	> 32	> 32	> 32
CCCN1CC([C@H]2COC(=O)C(C)(C)C(=O)[C@H](C)[C@@H](O[C@@H]3O[C@H](C)C[C@H](N(C)C)[C@H]3O)[C@](C)(OC)C[C@@H](C)CN2C)C1 [Compound 29, (3S,6R,8R,9R,10R)-9-(((2S,3R,4S,6R)-4-(dimethylamino)-3-hydroxy-6-methyltetrahydro-2H-pyran-2-yl)oxy)-8-methoxy-4,6,8,10,12,12-hexamethyl-3-(1-propylazetidin-3-yl)-1-oxa-4-azacyclotridecane-11,13-dione]	> 32	< 4	4 to 32 (≈ 6.69 to 53.5 µM)	> 32	> 32
CO[C@]1(C)C[C@@H](C)CN(C)[C@H](c2ccc(Br)cc2)COC(=O)C(C)(C)C(=O)[C@H](C)[C@H]1O[C@@H]1O[C@H](C)C[C@H](N(C)C)[C@H]1O [Compound 33, (3R,6R,8R,9R,10R)-3-(4-bromophenyl)-9-(((2S,3R,4S,6R)-4-(dimethylamino)-3-hydroxy-6-methyltetrahydro-2H-pyran-2-yl)oxy)-8-methoxy-4,6,8,10,12,12-hexamethyl-1-oxa-4-azacyclotridecane-11,13-dione]	> 32	4 to 32 (≈ 6.1 to 48.8 µM)	> 32	> 32	> 32
CO[C@]1(C)C[C@@H](C)CN(C)[C@@H]([C@H]2CCCN(C(=O)CN(C)C)C2)COC(=O)C(C)(C)C(=O)[C@H](C)[C@H]1O[C@@H]1O[C@H](C)C[C@H](N(C)C)[C@H]1O [Compound 34, (3S,6R,8R,9R,10R)-9-(((2S,3R,4S,6R)-4-(dimethylamino)-3-hydroxy-6-methyltetrahydro-2H-pyran-2-yl)oxy)-3-((S)-1-(dimethylglycyl)piperidin-3-yl)-8-methoxy-4,6,8,10,12,12-hexamethyl-1-oxa-4-azacyclotridecane-11,13-dione]	> 32	4 to 32 (≈ 5.98 to 47.8 µM)	> 32	> 32	> 32
CO[C@]1(C)C[C@@H](C)CN(C)[C@H](C2CN(C(C)C)C2)COC(=O)C(C)(C)C(=O)[C@H](C)[C@H]1O[C@@H]1O[C@H](C)C[C@H](N(C)C)[C@H]1O [Compound 35, (3R,6R,8R,9R,10R)-9-(((2S,3R,4S,6R)-4-(dimethylamino)-3-hydroxy-6-methyltetrahydro-2H-pyran-2-yl)oxy)-3-(1-isopropylazetidin-3-yl)-8-methoxy-4,6,8,10,12,12-hexamethyl-1-oxa-4-azacyclotridecane-11,13-dione]	> 32	< 4	4 to 32 (≈ 6.69 to 53.5 µM)	> 32	> 32
CO[C@]1(C)C[C@@H](C)CN(C)[C@H](C2CN(CC(=O)NC(C)C)C2)COC(=O)C(C)(C)C(=O)[C@H](C)[C@H]1O[C@@H]1O[C@H](C)C[C@H](N(C)C)[C@H]1O [Compound 36, 2-(3-((3R,6R,8R,9R,10R)-9-(((2S,3R,4S,6R)-4-(dimethylamino)-3-hydroxy-6-methyltetrahydro-2H-pyran-2-yl)oxy)-8-methoxy-4,6,8,10,12,12-hexamethyl-11,13-dioxo-1-oxa-4-azacyclotridecan-3-yl)azetidin-1-yl)-N-isopropylacetamide]	> 32	4 to 32 (≈ 6.11 to 48.9 µM)	4 to 32 (≈ 6.11 to 48.9 µM)	> 32	> 32
CO[C@]1(C)C[C@@H](C)CN(C)[C@H](c2ccccc2)COC(=O)C(C)(C)C(=O)[C@H](C)[C@H]1O[C@@H]1O[C@H](C)C[C@H](N(C)C)[C@H]1O [Compound 42, (3R,6R,8R,9R,10R)-9-(((2S,3R,4S,6R)-4-(Dimethylamino)-3-hydroxy-6-methyltetrahydro-2H-pyran-2-yl)oxy)-8-methoxy-4,6,8,10,12,12-hexamethyl-3-phenyl-1-oxa-4-azacyclotridecane-11,13-dione]	> 32	4 to 32 (≈ 6.94 to 55.5 µM)	> 32	> 32	> 32

The remaining lines, values ahead:

MIC (S. aureus MP-12) [µg/mL]	MIC (E. coli MP-4) [µg/mL]	MIC (K. pneumoniae MP-546) [µg/mL]	MIC (P. aeruginosa MP-3) [µg/mL]	MIC (A. baumannii MP-15) [µg/mL]	Structure (SMILES)
4 to 32 (≈ 6.24 to 49.9 µM)	< 4	< 4	> 32	> 32	CO[C@]1(C)C[C@@H](C)CN(C)[C@H](C2CN(C(=O)CN(C)C)C2)COC(=O)C(C)(C)C(=O)[C@H](C)[C@H]1O[C@@H]1O[C@H](C)C[C@H](N(C)C)[C@H]1O [Compound 28, (3R,6R,8R,9R,10R)-9-(((2S,3R,4S,6R)-4-(dimethylamino)-3-hydroxy-6-methyltetrahydro-2H-pyran-2-yl)oxy)-3-(1-(dimethylglycyl)azetidin-3-yl)-8-methoxy-4,6,8,10,12,12-hexamethyl-1-oxa-4-azacyclotridecane-11,13-dione]
4 to 32 (≈ 6.11 to 48.9 µM)	< 4	4 to 32 (≈ 6.11 to 48.9 µM)	> 32	> 32	CCN1C[C@H](C)C[C@@](C)(OC)[C@H](O[C@@H]2O[C@H](C)C[C@H](N(C)C)[C@H]2O)[C@@H](C)C(=O)C(C)(C)C(=O)OC[C@H]1C1CN(C(=O)CN(C)C)C1 [Compound 38, (3R,6R,8R,9R,10R)-9-(((2S,3R,4S,6R)-4-(dimethylamino)-3-hydroxy-6-methyltetrahydro-2H-pyran-2-yl)oxy)-3-(1-(dimethylglycyl)azetidin-3-yl)-4-ethyl-8-methoxy-6,8,10,12,12-pentamethyl-1-oxa-4-azacyclotridecane-11,13-dione]
4 to 32 (≈ 6.25 to 50 µM)	4 to 32 (≈ 6.25 to 50 µM)	4 to 32 (≈ 6.25 to 50 µM)	> 32	> 32	CO[C@]1(C)C[C@@H](C)CN(C)[C@H]([C@H]2CCCN(CC(C)C)C2)COC(=O)C(C)(C)C(=O)[C@H](C)[C@H]1O[C@@H]1O[C@H](C)C[C@H](N(C)C)[C@H]1O [Compound 39, (3R,6R,8R,9R,10R)-9-(((2S,3R,4S,6R)-4-(Dimethylamino)-3-hydroxy-6-methyltetrahydro-2H-pyran-2-yl)oxy)-3-((S)-1-isobutylpiperidin-3-yl)-8-methoxy-4,6,8,10,12,12-hexamethyl-1-oxa-4-azacyclotridecane-11,13-dione]
4 to 32 (≈ 7.02 to 56.2 µM)	< 4	< 4	> 32	> 32	CO[C@]1(C)C[C@@H](C)CN(C)[C@@H]([C@H]2CCNC2)COC(=O)C(C)(C)C(=O)[C@H](C)[C@H]1O[C@@H]1O[C@H](C)C[C@H](N(C)C)[C@H]1O [Compound 40, (3S,6R,8R,9R,10R)-9-(((2S,3R,4S,6R)-4-(Dimethylamino)-3-hydroxy-6-methyltetrahydro-2H-pyran-2-yl)oxy)-8-methoxy-4,6,8,10,12,12-hexamethyl-3-((S)-pyrrolidin-3-yl)-1-oxa-4-azacyclotridecane-11,13-dione]
4 to 32 (≈ 6.69 to 53.5 µM)	< 4	< 4	> 32	> 32	CO[C@]1(C)C[C@@H](C)CN(C)[C@H](C2CCN(C)CC2)COC(=O)C(C)(C)C(=O)[C@H](C)[C@H]1O[C@@H]1O[C@H](C)C[C@H](N(C)C)[C@H]1O [Compound 43, (3R,6R,8R,9R,10R)-9-(((2S,3R,4S,6R)-4-(dimethylamino)-3-hydroxy-6-methyltetrahydro-2H-pyran-2-yl)oxy)-8-methoxy-4,6,8,10,12,12-hexamethyl-3-(1-methylpiperidin-4-yl)-1-oxa-4-azacyclotridecane-11,13-dione]

From patent US20220177508A1, “C10-Cyclic Substituted 13-Membered Macrolides and Uses Thereof” (Zikani Therapeutics, Inc., priority 2018, published 2022)
